27 compounds from patent publication US8765773B2, “Substituted hydroxamic acids and uses thereof” (Millennium Pharmaceuticals, Inc., priority 2010, dated 2014) can be followed below.

This assay concerns the target T1, purified human HDAC6 (Homo sapiens, UniProt Q9UBN7).
T1 construct: purchased BPS Bioscience 5006
T1 sequence (Q9UBN7 1-1215): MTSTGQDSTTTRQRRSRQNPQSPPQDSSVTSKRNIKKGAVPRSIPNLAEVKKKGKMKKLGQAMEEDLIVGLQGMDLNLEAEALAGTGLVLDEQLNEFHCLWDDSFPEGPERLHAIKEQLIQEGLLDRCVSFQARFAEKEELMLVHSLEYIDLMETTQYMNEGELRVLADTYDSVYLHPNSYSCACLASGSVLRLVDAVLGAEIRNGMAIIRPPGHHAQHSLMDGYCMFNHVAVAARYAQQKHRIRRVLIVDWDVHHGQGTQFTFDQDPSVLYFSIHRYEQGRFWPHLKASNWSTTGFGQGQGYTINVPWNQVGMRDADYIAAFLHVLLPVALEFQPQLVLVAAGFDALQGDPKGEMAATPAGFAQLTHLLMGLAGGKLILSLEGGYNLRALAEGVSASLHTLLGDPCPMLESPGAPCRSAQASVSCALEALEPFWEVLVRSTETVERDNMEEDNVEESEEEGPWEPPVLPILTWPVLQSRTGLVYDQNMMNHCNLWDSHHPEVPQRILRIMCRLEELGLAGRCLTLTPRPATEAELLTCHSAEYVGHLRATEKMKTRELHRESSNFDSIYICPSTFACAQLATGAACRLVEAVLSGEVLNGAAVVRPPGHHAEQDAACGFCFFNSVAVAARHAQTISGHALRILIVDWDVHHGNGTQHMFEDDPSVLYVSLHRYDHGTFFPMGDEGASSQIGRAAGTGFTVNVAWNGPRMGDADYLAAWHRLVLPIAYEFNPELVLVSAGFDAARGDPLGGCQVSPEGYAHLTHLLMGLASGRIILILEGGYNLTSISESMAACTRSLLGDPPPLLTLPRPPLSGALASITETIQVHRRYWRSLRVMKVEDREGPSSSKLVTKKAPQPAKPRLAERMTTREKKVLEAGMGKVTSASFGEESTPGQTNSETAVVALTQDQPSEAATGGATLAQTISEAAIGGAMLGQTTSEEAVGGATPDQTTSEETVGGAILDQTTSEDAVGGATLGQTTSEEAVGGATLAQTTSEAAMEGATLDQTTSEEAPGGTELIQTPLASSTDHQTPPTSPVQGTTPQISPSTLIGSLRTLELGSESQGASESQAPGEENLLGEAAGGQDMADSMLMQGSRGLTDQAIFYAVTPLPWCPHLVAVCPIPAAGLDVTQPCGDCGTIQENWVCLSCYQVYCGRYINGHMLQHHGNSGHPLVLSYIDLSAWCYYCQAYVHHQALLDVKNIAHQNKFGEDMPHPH
Description: HDAC6 Enzyme Assay. Format: biochemical. Particulars: read-out: Percent Inhibition; for inhibition at 0.412 µM: compound concentration 0.412 μM; for inhibition at 0.37 µM: compound concentration 0.37 μM. As for the experimental part: To measure the inhibition of HDAC6 activity, purified human HDAC6 (BPS Bioscience; Cat. No. 5006) is incubated with substrate Ac-Arg-Gly-Lys(Ac)-AMC peptide (Bachem Biosciences; Cat. No. I-1925) for 1 hour at 30° C. in the presence of test compounds or vehicle DMSO control. The reaction is stopped with the HDAC inhibitor trichostatin A (Sigma; Cat. No. T8552) and the amount of Arg-Gly-Lys-AMC generated is quantitated by digestion with trypsin (Sigma; Cat. No. T1426) and subsequent measurement of the amount of AMC released using a fluorescent plate reader (Pherastar; BMG Technologies) set at Ex 340 nm and Em 460 nm. Concentration response curves are generated by calculating the fluorescence increase in test compound-treated samples relative to DMSO-treated controls, and percentage inhibition values at a single concentration or enzyme inhibition (IC50) values are determined from those curves. One skilled in the art will appreciate that the values generated either as percentage inhibition at a single concentration or IC50 values are subject to experimental variation.

By inhibition is commonly meant the percentage by which the read-out fell short of the control. With `Cc1ccccc1OCc1nc2cc(C(=O)NO)ccc2c(=O)[nH]1` [Compound I-29, N-hydroxy-2-[(2-methylphenoxy)methyl]-4-oxo-3,4-dihydroquinazoline-7-carboxamide], the inhibition at 0.412 µM stood at 78.9%.

Consider `O=C(NO)c1ccc2ncn(Cc3ccc(C(F)(F)F)cc3)c(=O)c2c1` [Compound I-30, N-hydroxy-4-oxo-3-[4-(trifluoromethyl)benzyl]-3,4-dihydroquinazoline-6-carboxamide], for which the inhibition at 0.412 µM was determined as 93.6%.

`O=C(NO)c1ccc2ccn(Cc3cccc(OCc4ccccc4)c3)c(=O)c2c1` [Compound I-31, 2-[3-(benzyloxy)benzyl]-N-hydroxy-1-oxo-1,2-dihydroisoquinoline-7-carboxamide]: the inhibition at 0.412 µM was 89.5%.

In the case of `CC(C)c1ccc(-c2cccc(Cn3cnc4ccc(C(=O)NO)cc4c3=O)c2)cc1` [Compound I-32, N-hydroxy-3-[(4′-isopropylbiphenyl-3-yl)methyl]-4-oxo-3,4-dihydroquinazoline-6-carboxamide], the inhibition at 0.37 µM was determined as 83.6%.

As for `Cc1cc(C)cc(Cn2ccc3ccc(C(=O)NO)cc3c2=O)c1` [Compound I-33, 2-(3,5-dimethylbenzyl)-N-hydroxy-1-oxo-1,2-dihydroisoquinoline-7-carboxamide], the inhibition at 0.412 µM came out at 94.4%.

For the compound `COc1ccc(NCCCn2ccc3ccc(C(=O)NO)cc3c2=O)cc1` [Compound I-34, N-hydroxy-2-{3-[(4-methoxyphenyl)amino]propyl}-1-oxo-1,2-dihydroisoquinoline-7-carboxamide], the inhibition at 0.412 µM was determined as 94.3%.

`Cc1ccccc1Cc1nc2cc(C(=O)NO)ccc2c(=O)n1Cc1ccc(C(F)(F)F)cc1` [Compound I-35, N-hydroxy-2-(2-methylbenzyl)-4-oxo-3-[4-(trifluoromethyl)benzyl]-3,4-dihydroquinazoline-7-carboxamide]: the inhibition at 0.37 µM is 66%.

Regarding `O=C(NO)c1ccc2ncn(Cc3ccccc3C(F)(F)F)c(=O)c2c1` [Compound I-36, N-hydroxy-4-oxo-3-[2-(trifluoromethyl)benzyl]-3,4-dihydroquinazoline-6-carboxamide], the inhibition at 0.412 µM was 91.8%.

Consider `O=C(NO)c1ccc2ncn(Cc3cccc(-c4cccc(OC(F)(F)F)c4)c3)c(=O)c2c1` [Compound I-37, N-hydroxy-4-oxo-3-{[3′-(trifluoromethoxy)biphenyl-3-yl]methyl}-3,4-dihydroquinazoline-6-carboxamide], for which the inhibition at 0.37 µM is 89.8%.

Turning to `Cc1ccccc1OCCCn1ccc2ccc(C(=O)NO)cc2c1=O` [Compound I-38, N-hydroxy-2-[3-(2-methylphenoxy)propyl]-1-oxo-1,2-dihydroisoquinoline-7-carboxamide], the inhibition at 0.412 µM turned out to be 96.1%.

For the compound `O=C(NO)c1ccc2c(=O)n(Cc3ccc(C(F)(F)F)cc3)c(CCc3ccccc3)nc2c1` [Compound I-39, N-hydroxy-4-oxo-2-(2-phenylethyl)-3-[4-(trifluoromethyl)benzyl]-3,4-dihydroquinazoline-7-carboxamide], the inhibition at 0.37 µM was 84.5%.

In the case of `CC(C)Nc1nc2cc(C(=O)NO)ccc2c(=O)n1-c1ccc(Cl)cc1` [Compound I-40, 3-(4-chlorophenyl)-N-hydroxy-2-(isopropylamino)-4-oxo-3,4-dihydroquinazoline-7-carboxamide], the inhibition at 0.412 µM worked out at 44.5%.

In the case of `O=C(NO)c1ccc2ncn(CCN3CCCCC3)c(=O)c2c1` [Compound I-41, N-hydroxy-4-oxo-3-(2-piperidin-1-ylethyl)-3,4-dihydroquinazoline-6-carboxamide], the inhibition at 0.37 µM came to 73.2%.

As to `O=C(NO)c1ccc2ccn(CCCOc3ccc4c(c3)CCC4)c(=O)c2c1` [Compound I-42, 2-[3-(2,3-dihydro-1H-inden-5-yloxy)propyl]-N-hydroxy-1-oxo-1,2-dihydroisoquinoline-7-carboxamide], the inhibition at 0.412 µM was 94.4%.

On to `O=C(NO)c1ccc2c(=O)n(Cc3cccc(Cl)c3)cnc2c1` [Compound I-43, 3-(3-chlorobenzyl)-N-hydroxy-4-oxo-3,4-dihydroquinazoline-7-carboxamide], for which the inhibition at 0.412 µM is 96.1%.

In the case of `CCCC(C)n1ccc2ccc(C(=O)NO)cc2c1=O` (stereo not drawn) [Compound I-44, N-hydroxy-2-(1-methylbutyl)-1-oxo-1,2-dihydroisoquinoline-7-carboxamide], the inhibition at 0.412 µM was found to be 91.8%.

For `O=C(NO)c1ccc2ccn(CCN(C(=O)C3CC3)c3cccc(-n4cccn4)c3)c(=O)c2c1` [Compound I-45, 2-(2-{(cyclopropylcarbonyl)[3-(1H-pyrazol-1-yl)phenyl]amino}ethyl)-N-hydroxy-1-oxo-1,2-dihydroisoquinoline-7-carboxamide], the inhibition at 0.37 µM is 89.6%.

As for `O=C(NO)c1ccc2ncn(Cc3cccc(-c4cccc(C(F)(F)F)c4)c3)c(=O)c2c1` [Compound I-46, N-hydroxy-4-oxo-3-{[3′-(trifluoromethyl)biphenyl-3-yl]methyl}-3,4-dihydroquinazoline-6-carboxamide], the inhibition at 0.37 µM came to 94.4%.

Take `Cn1c(NCc2ccncc2)nc2cc(C(=O)NO)ccc2c1=O` [Compound I-47, N-hydroxy-3-methyl-4-oxo-2-[(pyridin-4-ylmethyl)amino]-3,4-dihydroquinazoline-7-carboxamide]: the inhibition at 0.412 µM came out at 44.2%.

As for `COc1ccccc1OCCn1ccc2ccc(C(=O)NO)cc2c1=O` [Compound I-48, N-hydroxy-2-[2-(2-methoxyphenoxy)ethyl]-1-oxo-1,2-dihydroisoquinoline-7-carboxamide], the inhibition at 0.412 µM was 97%.

Regarding `COc1ccc(Nc2nc3cc(C(=O)NO)ccc3c(=O)n2C)cc1` [Compound I-49, N-hydroxy-2-[(4-methoxyphenyl)amino]-3-methyl-4-oxo-3,4-dihydroquinazoline-7-carboxamide], the inhibition at 0.412 µM was 55%.

Consider `O=C(NO)c1ccc2ccn(Cc3ccc(F)cc3Cl)c(=O)c2c1` [Compound I-50, 2-(2-chloro-4-fluorobenzyl)-N-hydroxy-1-oxo-1,2-dihydroisoquinoline-7-carboxamide], for which the inhibition at 0.412 µM turned out to be 94.9%.

Take `CS(=O)(=O)c1ccccc1OCCCn1ccc2ccc(C(=O)NO)cc2c1=O` [Compound I-51, N-hydroxy-2-{3-[2-(methylsulfonyl)phenoxy]propyl}-1-oxo-1,2-dihydroisoquinoline-7-carboxamide]: the inhibition at 0.412 µM was determined as 96.2%.

In the case of `O=C(NO)c1ccc2ccn(CCCOc3ccccc3C(F)(F)F)c(=O)c2c1` [Compound I-52, N-hydroxy-1-oxo-2-{3-[2-(trifluoromethyl)phenoxy]propyl}-1,2-dihydroisoquinoline-7-carboxamide], the inhibition at 0.412 µM was 90%.

As for `O=C(NO)c1ccc2c(=O)n(Cc3ccc(C(F)(F)F)cc3)c(CC3CCCCC3)nc2c1` [Compound I-53, 2-(cyclohexylmethyl)-N-hydroxy-4-oxo-3-[4-(trifluoromethyl)benzyl]-3,4-dihydroquinazoline-7-carboxamide], the inhibition at 0.37 µM was 65.5%.

Consider `Cc1ccc(Cn2ccc3ccc(C(=O)NO)cc3c2=O)cc1F` [Compound I-54, 2-(3-fluoro-4-methylbenzyl)-N-hydroxy-1-oxo-1,2-dihydroisoquinoline-7-carboxamide], for which the inhibition at 0.412 µM was 94.5%.

Consider `O=C(NO)c1ccc2ncn(Cc3cccc(OC(F)(F)F)c3)c(=O)c2c1` [Compound I-55, N-hydroxy-4-oxo-3-[3-(trifluoromethoxy)benzyl]-3,4-dihydroquinazoline-6-carboxamide], for which the inhibition at 0.412 µM is 93.9%.
